Experimental data published in ChEMBL document CHEMBL3044763, “Inhibitory Activities of Rhodanine Derivatives on Plant Growth” (Biosci Biotechnol Biochem, 1996).

Experiments:
[1] = system: Brassica rapa subsp. oleifera; test: Growth inhibition of Brassica rapa subsp. oleifera assessed as chlorophyll b level at 3 x 10^-4 M after 7 days; type: functional; parameters: scale not given: the % may be the effect or the level left
[2] = system: Brassica rapa subsp. oleifera; test: Growth inhibition of Brassica rapa subsp. oleifera assessed as chlorophyll b level at 1 x 10^-4 M after 7 days; type: functional; parameters: scale not given: the % may be the effect or the level left
[3] = system: Brassica rapa subsp. oleifera; test: Growth inhibition of Brassica rapa subsp. oleifera assessed as chlorophyll a level at 3 x 10^-5 M after 7 days; type: functional; parameters: scale not given: the % may be the effect or the level left
[4] = system: Brassica rapa subsp. oleifera; test: Growth inhibition of Brassica rapa subsp. oleifera assessed as chlorophyll a level at 5 x 10^-5 M after 7 days; type: functional; parameters: scale not given: the % may be the effect or the level left
[5] = Toxicity in Mus musculus ddY (mouse) assessed as mortality at 300 mg/kg, ip after 4 days; type: organism-based; parameters: dose 300 mg/kg, route intraperitoneal; conditions: in vivo
[6] = Toxicity in Mus musculus ddY (mouse) assessed as mortality at 275 mg/kg, ip after 4 days; type: organism-based; parameters: dose 275 mg/kg, route intraperitoneal; conditions: in vivo
[7] = Toxicity in Mus musculus ddY (mouse) assessed as mortality at 325 mg/kg, ip after 4 days; type: organism-based; parameters: dose 325 mg/kg, route intraperitoneal; conditions: in vivo
[8] = Toxicity in ip dosed Mus musculus ddY (mouse) assessed as mortality after 1 to 7 days; type: organism-based; conditions: in vivo
[9] = system: Brassica rapa subsp. oleifera; test: Growth inhibition of Brassica rapa subsp. oleifera assessed as total chlorophyll level at 5 x 10^-5 M after 7 days; type: functional; parameters: scale not given: the % may be the effect or the level left
[10] = system: Brassica rapa subsp. oleifera; test: Growth inhibition of Brassica rapa subsp. oleifera assessed as total chlorophyll level at 3 x 10^-5 M after 7 days; type: functional; parameters: scale not given: the % may be the effect or the level left
[11] = system: Brassica rapa subsp. oleifera; test: Growth inhibition of Brassica rapa subsp. oleifera assessed as total chlorophyll level at 1 x 10^-4 M after 7 days; type: functional; parameters: scale not given: the % may be the effect or the level left
[12] = system: Brassica rapa subsp. oleifera; test: Growth inhibition of Brassica rapa subsp. oleifera assessed as total chlorophyll level at 3 x 10^-4 M after 7 days; type: functional; parameters: scale not given: the % may be the effect or the level left
[13] = system: Brassica rapa subsp. oleifera; test: Growth inhibition of Brassica rapa subsp. oleifera assessed as root growth at 3 x 10^-5 M after 7 days; type: functional
[14] = system: Brassica rapa subsp. oleifera; test: Growth inhibition of Brassica rapa subsp. oleifera assessed as root growth at 5 x 10^-5 M after 7 days; type: functional
[15] = system: Brassica rapa subsp. oleifera; test: Growth inhibition of Brassica rapa subsp. oleifera assessed as root growth at 1 x 10^-4 M after 7 days; type: functional
[16] = system: Brassica rapa subsp. oleifera; test: Growth inhibition of Brassica rapa subsp. oleifera assessed as root growth at 3 x 10^-4 M after 7 days; type: functional
[17] = Toxicity in Mus musculus ddY (mouse) assessed as mortality at 225 mg/kg, ip after 3 days; type: organism-based; parameters: dose 225 mg/kg, route intraperitoneal; conditions: in vivo
[18] = Toxicity in Mus musculus ddY (mouse) assessed as mortality at 200 mg/kg, ip after 3 days; type: organism-based; parameters: dose 200 mg/kg, route intraperitoneal; conditions: in vivo
[19] = Toxicity in Mus musculus ddY (mouse) assessed as mortality at 250 mg/kg, ip after 3 days; type: organism-based; parameters: dose 250 mg/kg, route intraperitoneal; conditions: in vivo
[20] = Toxicity in Mus musculus ddY (mouse) assessed as mortality at 200 mg/kg, ip after 2 days; type: organism-based; parameters: dose 200 mg/kg, route intraperitoneal; conditions: in vivo
[21] = Toxicity in Mus musculus ddY (mouse) assessed as mortality at 300 mg/kg, ip after 3 days; type: organism-based; parameters: dose 300 mg/kg, route intraperitoneal; conditions: in vivo
[22] = Toxicity in Mus musculus ddY (mouse) assessed as mortality at 275 mg/kg, ip after 3 days; type: organism-based; parameters: dose 275 mg/kg, route intraperitoneal; conditions: in vivo
[23] = Toxicity in Mus musculus ddY (mouse) assessed as mortality at 325 mg/kg, ip after 3 days; type: organism-based; parameters: dose 325 mg/kg, route intraperitoneal; conditions: in vivo
[24] = Toxicity in Mus musculus ddY (mouse) assessed as mortality at 225 mg/kg, ip after 2 days; type: organism-based; parameters: dose 225 mg/kg, route intraperitoneal; conditions: in vivo
[25] = Toxicity in Mus musculus ddY (mouse) assessed as mortality at 250 mg/kg, ip after 2 days; type: organism-based; parameters: dose 250 mg/kg, route intraperitoneal; conditions: in vivo
[26] = Toxicity in Mus musculus ddY (mouse) assessed as mortality at 300 mg/kg, ip after 2 days; type: organism-based; parameters: dose 300 mg/kg, route intraperitoneal; conditions: in vivo
[27] = Toxicity in Mus musculus ddY (mouse) assessed as mortality at 275 mg/kg, ip after 2 days; type: organism-based; parameters: dose 275 mg/kg, route intraperitoneal; conditions: in vivo
[28] = Toxicity in Mus musculus ddY (mouse) assessed as mortality at 325 mg/kg, ip after 2 days; type: organism-based; parameters: dose 325 mg/kg, route intraperitoneal; conditions: in vivo
[29] = Toxicity in Mus musculus ddY (mouse) assessed as mortality at 225 mg/kg, ip after 1 day; type: organism-based; parameters: dose 225 mg/kg, route intraperitoneal; conditions: in vivo
[30] = Toxicity in Mus musculus ddY (mouse) assessed as mortality at 200 mg/kg, ip after 1 day; type: organism-based; parameters: dose 200 mg/kg, route intraperitoneal; conditions: in vivo
[31] = Toxicity in Mus musculus ddY (mouse) assessed as mortality at 250 mg/kg, ip after 1 day; type: organism-based; parameters: dose 250 mg/kg, route intraperitoneal; conditions: in vivo
[32] = Toxicity in Mus musculus ddY (mouse) assessed as mortality at 300 mg/kg, ip after 1 day; type: organism-based; parameters: dose 300 mg/kg, route intraperitoneal; conditions: in vivo
[33] = Toxicity in Mus musculus ddY (mouse) assessed as mortality at 275 mg/kg, ip after 1 day; type: organism-based; parameters: dose 275 mg/kg, route intraperitoneal; conditions: in vivo
[34] = Toxicity in Mus musculus ddY (mouse) assessed as mortality at 325 mg/kg, ip after 1 day; type: organism-based; parameters: dose 325 mg/kg, route intraperitoneal; conditions: in vivo
[35] = system: Brassica rapa subsp. oleifera; test: Growth inhibition of Brassica rapa subsp. oleifera assessed as chlorophyll b level at 3 x 10^-5 M after 7 days; type: functional; parameters: scale not given: the % may be the effect or the level left
[36] = system: Brassica rapa subsp. oleifera; test: Growth inhibition of Brassica rapa subsp. oleifera assessed as chlorophyll b level at 5 x 10^-5 M after 7 days; type: functional; parameters: scale not given: the % may be the effect or the level left
[37] = system: Brassica rapa subsp. oleifera; test: Growth inhibition of Brassica rapa subsp. oleifera assessed as chlorophyll a level at 1 x 10^-4 M after 7 days; type: functional; parameters: scale not given: the % may be the effect or the level left
[38] = system: Brassica rapa subsp. oleifera; test: Growth inhibition of Brassica rapa subsp. oleifera assessed as chlorophyll a level at 3 x 10^-4 M after 7 days; type: functional; parameters: scale not given: the % may be the effect or the level left
[39] = Toxicity in Mus musculus ddY (mouse) assessed as mortality at 225 mg/kg, ip after 5 days; type: organism-based; parameters: dose 225 mg/kg, route intraperitoneal; conditions: in vivo
[40] = Toxicity in Mus musculus ddY (mouse) assessed as mortality at 200 mg/kg, ip after 5 days; type: organism-based; parameters: dose 200 mg/kg, route intraperitoneal; conditions: in vivo
[41] = Toxicity in Mus musculus ddY (mouse) assessed as mortality at 250 mg/kg, ip after 5 days; type: organism-based; parameters: dose 250 mg/kg, route intraperitoneal; conditions: in vivo
[42] = Toxicity in Mus musculus ddY (mouse) assessed as mortality at 275 mg/kg, ip after 5 days; type: organism-based; parameters: dose 275 mg/kg, route intraperitoneal; conditions: in vivo
[43] = Toxicity in Mus musculus ddY (mouse) assessed as mortality at 325 mg/kg, ip after 5 days; type: organism-based; parameters: dose 325 mg/kg, route intraperitoneal; conditions: in vivo
[44] = Toxicity in Mus musculus ddY (mouse) assessed as mortality at 300 mg/kg, ip after 5 days; type: organism-based; parameters: dose 300 mg/kg, route intraperitoneal; conditions: in vivo
[45] = Toxicity in Mus musculus ddY (mouse) assessed as mortality at 275 mg/kg, ip after 7 days; type: organism-based; parameters: dose 275 mg/kg, route intraperitoneal; conditions: in vivo
[46] = Toxicity in Mus musculus ddY (mouse) assessed as mortality at 325 mg/kg, ip after 7 days; type: organism-based; parameters: dose 325 mg/kg, route intraperitoneal; conditions: in vivo
[47] = Toxicity in Mus musculus ddY (mouse) assessed as mortality at 300 mg/kg, ip after 7 days; type: organism-based; parameters: dose 300 mg/kg, route intraperitoneal; conditions: in vivo
[48] = Toxicity in Mus musculus ddY (mouse) assessed as mortality at 225 mg/kg, ip after 6 days; type: organism-based; parameters: dose 225 mg/kg, route intraperitoneal; conditions: in vivo
[49] = Toxicity in Mus musculus ddY (mouse) assessed as mortality at 200 mg/kg, ip after 6 days; type: organism-based; parameters: dose 200 mg/kg, route intraperitoneal; conditions: in vivo
[50] = Toxicity in Mus musculus ddY (mouse) assessed as mortality at 250 mg/kg, ip after 6 days; type: organism-based; parameters: dose 250 mg/kg, route intraperitoneal; conditions: in vivo
[51] = Toxicity in Mus musculus ddY (mouse) assessed as mortality at 300 mg/kg, ip after 6 days; type: organism-based; parameters: dose 300 mg/kg, route intraperitoneal; conditions: in vivo
[52] = Toxicity in Mus musculus ddY (mouse) assessed as mortality at 275 mg/kg, ip after 6 days; type: organism-based; parameters: dose 275 mg/kg, route intraperitoneal; conditions: in vivo
[53] = Toxicity in Mus musculus ddY (mouse) assessed as mortality at 325 mg/kg, ip after 6 days; type: organism-based; parameters: dose 325 mg/kg, route intraperitoneal; conditions: in vivo
[54] = Toxicity in Mus musculus ddY (mouse) assessed as mortality at 200 mg/kg, ip after 7 days; type: organism-based; parameters: dose 200 mg/kg, route intraperitoneal; conditions: in vivo
[55] = Toxicity in Mus musculus ddY (mouse) assessed as mortality at 225 mg/kg, ip after 7 days; type: organism-based; parameters: dose 225 mg/kg, route intraperitoneal; conditions: in vivo
[56] = Toxicity in Mus musculus ddY (mouse) assessed as mortality at 250 mg/kg, ip after 7 days; type: organism-based; parameters: dose 250 mg/kg, route intraperitoneal; conditions: in vivo
[57] = Toxicity in Mus musculus ddY (mouse) assessed as mortality at 225 mg/kg, ip after 4 days; type: organism-based; parameters: dose 225 mg/kg, route intraperitoneal; conditions: in vivo
[58] = Toxicity in Mus musculus ddY (mouse) assessed as mortality at 200 mg/kg, ip after 4 days; type: organism-based; parameters: dose 200 mg/kg, route intraperitoneal; conditions: in vivo
[59] = Toxicity in Mus musculus ddY (mouse) assessed as mortality at 250 mg/kg, ip after 4 days; type: organism-based; parameters: dose 250 mg/kg, route intraperitoneal; conditions: in vivo

Structure (SMILES): CN1C(=O)CSC1=S [3-METHYL-RHODANINE]
- Activity [1]: 3.53%
- Activity [2]: 4.85%
- Activity [3]: 15.09%
- Activity [4]: 14.2%
- mortality at 96 h [5]: 80%
- mortality at 96 h [6]: 80%
- mortality at 96 h [7]: 100%
- LD50 [8]: 255 mg/kg
- Activity [9]: 18.62%
- Activity [10]: 19.75%
- Activity [11]: 20.44%
- Activity [12]: 14.29%
- Root length [13]: 56.2 mm
- Root length [14]: 53.9 mm
- Activity [15]: 52.7 mm
- Activity [16]: 37.5 mm
- mortality at 72 h [17]: 20%
- mortality at 72 h [18]: 0%
- mortality at 72 h [19]: 40%
- mortality at 48 h [20]: 0%
- mortality at 72 h [21]: 80%
- mortality at 72 h [22]: 80%
- mortality at 72 h [23]: 100%
- mortality at 48 h [24]: 20%
- mortality at 48 h [25]: 20%
- mortality at 48 h [26]: 80%
- mortality at 48 h [27]: 80%
- mortality at 48 h [28]: 60%
- mortality at 24 h [29]: 20%
- mortality at 24 h [30]: 0%
- mortality at 24 h [31]: 20%
- mortality at 24 h [32]: 40%
- mortality at 24 h [33]: 20%
- mortality at 24 h [34]: 60%
- Activity [35]: 4.67%
- Activity [36]: 4.44%
- Activity [37]: 15.61%
- Activity [38]: 10.77%
- mortality at 120 h [39]: 20%
- mortality at 120 h [40]: 0%
- mortality at 120 h [41]: 40%
- mortality at 120 h [42]: 80%
- mortality at 120 h [43]: 100%
- mortality at 120 h [44]: 80%
- mortality at 168 h [45]: 80%
- mortality at 168 h [46]: 100%
- mortality at 168 h [47]: 80%
- mortality at 144 h [48]: 20%
- mortality at 144 h [49]: 0%
- mortality at 144 h [50]: 40%
- mortality at 144 h [51]: 80%
- mortality at 144 h [52]: 80%
- mortality at 144 h [53]: 100%
- mortality at 168 h [54]: 0%
- mortality at 168 h [55]: 20%
- mortality at 168 h [56]: 40%
- mortality at 96 h [57]: 20%
- mortality at 96 h [58]: 0%
- mortality at 96 h [59]: 40%
